Marks after values point to notes of the source that are not given here.
Legend:
[1] = rat, in vivo
[2] = rat, in vivo; remark: listed apart in the source

What does the source list for Deoxynivalenol [DON]?
Consumption food Means ± Standard error [1]: 511 ± 5.71 ^b; Effect on consumption of food [2]: affected the consumption of food; Food consumption Means ± standard error [2]: 569 ± 19.1 ^b; Food consumption from 0 to 7 days [2]: 98 ± 4.75 ^a; Food consumption from 7 to 14 days [2]: 109 ± 4.84 ^a; Food consumption from 14 to 21 days [2]: 109 ± 5.41 ^b; Food consumption from 21 to 28 days [2]: 121 ± 4.83 ^b; Food consumption from 28 to 35 days [2]: 132 ± 3.10 ^b; Food conversion Means ± standard error [2]: 5.22 ± 0.195 ^b; Gain of weight from 0 to 7 days [2]: 24 ± 2.45 ^b; Gain of weight from 7 to 14 days [2]: 24 ± 3.04 ^a; Gain of weight from 14 to 21 days [2]: 21 ± 2.92 ^a; Gain of weight from 21 to 28 days [2]: 13 ± 3.89 ^b; Gain of weight from 28 to 35 days [2]: 27 ± 3.63 ^a; Weight gain Means ± standard error [2]: 109 ± 6.61 ^b g
